Assay results published in US8178135B2, “Aqueous solution of conophylline and/or conophyllidine” (Keio University, priority 2006, dated 2012).

Experiments:
[1] = Concentration dissolved after neutralization with pectin or sodium polyacrylate (ethanol crude extract); type: physicochemical; conditions: for concentration in solution: Control: filled up only with distilled water, not neutralized
Method: Crude extract (250 mg) obtained in Example 1 was dissolved in 5 ml of 0.1 N hydrochloric acid. Then, after insoluble matter was removed by centrifugation (1,500×g, 5 min), the solution was dispensed in 0.5 ml aliquots into test tubes. Then, 10 μl or 100 μl of a 0.2% aqueous solution of pectin (Genue pectin type YM-150-LJ) or 0.2% aqueous solution of sodium polyacrylate (degrees of polymerization=30,000 to 40,000, manufactured by Wako Pure Chemical Industries, Ltd.) was added and filled up to a total volume of 2 ml with distilled water. Meanwhile, only distilled water was added to some of the test tubes in a total volume of […] (without an additive).
(§1) Subsequently, the solution, after being adjusted to pH 6.0 with sodium carbonate aqueous solution, was filled up to a total volume of 2 ml and was centrifuged at 5,000×g for 10 min. The supernatant was recovered and the concentrations of conophylline and conophyllidine were measured. Meanwhile, the concentrations of conophylline and conophyllidine in the solutions, which was made by filled up to a total volume of 2.5 ml only with distilled water, were also measured as the control.

[2] = Concentration dissolved after neutralization with pectin added (partially purified by fractionation); type: physicochemical; conditions: for concentration in solution: Control: filled up only with distilled water, not neutralized
Method: 10 mg of the dried product obtained in Example 5 was dissolved in 5 ml of 0.1 N hydrochloric acid. This solution was dispensed in 0.5 ml aliquots into test tubes. Then, 10 μl or 100 μl of a 0.25% aqueous solution of pectin (Genue pectin type YM-150-LJ) was added and filled up to a total volume of 2 ml with distilled water. Meanwhile, only distilled water was added to some of the test tubes in a total volume of 2 ml.
as §1, with “volume of 2.5 ml and” for “volume of 2 ml and”

[3] = Crude extract II absorption test in GK rats; type: in vivo, rat; conditions: Crude extract II 4.3 or 13 mg/kg, 1.5-24 h
Method: Sixteen 10-week old GK rats were divided into four groups (n=4 per group). Two groups (the fasted groups) were fasted for 16 hours, and the remaining two groups (the fed groups) were allowed ad libitum access to chow and water. The fed groups received Crude extract II (containing Tween 80) at 4.3 mg/kg or 13 mg/kg. Blood was taken at 1.5, 3, 6, 12, and 24 hours post administration and plasma conophylline concentration was measured. Likewise, the fasted groups also received Crude extract II and plasma conophylline concentration was measured.

[4] = Blood concentrations after oral administration of acetic acid extract or dried pulverized leaves to healthy rats; type: in vivo, rat
Method: Dried leaves of Tabernaemontana divaricata were pulverized with a home mill, 1 g of the pulverized product was homogenized in 20 ml of 0.3 M acetic acid solution, and the active ingredient was extracted by stirring at 50° C. for 30 min. The supernatant was recovered by centrifugation and concentrated to dryness to obtain 0.3 g of powder (acetic acid extract). This powder contained conophylline and conophyllidine at 1.0 mg/g and 0.8 mg/g, respectively.
Further, 1 g of pulverized leaves was homogenized in 20 ml of distilled water and then concentrated to dryness to obtain 1 g of product (dried pulverized leaves). The amounts of the active ingredients of conophylline and conophyllidine were 0.40 mg/g and 0.35 mg/g, respectively.
Next, 0.2 g of the acetic acid extract and 0.5 g of the dried pulverized leaves were separately suspended in 5 ml of water for injection. These suspensions were administered to 5-week old healthy rats (Crj:CD (SD) IGS, SPF, male) using a sonde by forced oral administration at a dose of 5 ml/kg body weight (n=2 per suspension). Blood was taken from the orbital venous plexus of each rat before oral administration, 1.5, 3, 6, 12, and 24 hours post administration and serum was recovered by centrifugation. The concentrations of conophylline and conophyllidine in the blood were measured by precipitating protein by addition of 2 volumes of acetonitrile to the serum followed by HPLC analysis of the supernatant (Table 6).

[5] = system: model animals of neonatal diabetes; conditions: intraperitoneally administered; cited from earlier work
[6] = Solubility in distilled water or 1% SDS; type: physicochemical
Method: 10 mg of weighed Crude extract I obtained in Example 1 was added to 1 ml of distilled water or 1 ml of 1% sodium dodecyl sulfate (SDS) aqueous solution and was stirred vigorously. The solution was centrifuged at 5,000×g for 2 min and the concentrations of conophylline and conophyllidine in the supernatant were measured.

[7] = Storing stability of water-soluble composition extracted with citric acid; type: physicochemical; conditions: dried composition
Method: 0.1 M citric acid was added to the pulverized product of the dried leaves obtained by the same method as in Example 2, and stirred at 60° C. After insoluble matter was filtered off, the solution was neutralized to pH 6.0 with 0.1 N sodium hydroxide, dispensed in 1 ml aliquots into test tubes, and concentrated to dryness by centrifugation.
First, 1 ml of 50% ethanol was added to one of the test tubes to dissolve solid content. The solution was filtered through a 0.2 μm membrane filter, and then conophylline and conophyllidine were analyzed by HPLC.
Next, the remaining test tubes were divided into five groups, each of which being stored at −30° C. (shielded from light), 4° C. (shielded from light), 4° C. (not shielded from light), 30° C. (shielded from light), and 50° C. (shielded from light). After a lapse of a certain period of time, the composition was dissolved by addition of 50% ethanol, filtered, and analyzed by HPLC.

[8] = pH 6.0, Sodium polyacrylate 10 μg/ml
[9] = pH 6.0, Sodium polyacrylate 100 μg/ml

Structure (SMILES) | concentration in solution [1] [ng/mL] | concentration in supernatant after neutralization ([1]; pH 6.0, Pectin 10 μg/ml) [ng/mL] | concentration in supernatant after neutralization ([1]; pH 6.0, Pectin 100 μg/ml) [ng/mL] | concentration in supernatant after neutralization [1, 8] [ng/mL] | concentration in supernatant after neutralization [1, 9] [ng/mL] | concentration in supernatant after neutralization ([1]; pH 6.0, additive None) [ng/mL] | concentration in solution [2] [ng/mL] | concentration in supernatant after neutralization ([2]; pH 6.0, Pectin 10 μg/ml) [ng/mL] | concentration in supernatant after neutralization ([2]; pH 6.0, Pectin 100 μg/ml) [ng/mL] | concentration in supernatant after neutralization ([2]; pH 6.0, pectin 0 μg/ml) [ng/mL] | also measured
CC[C@@]12CC(C(=O)OC)=C3Nc4cc5c(cc4[C@@]34CCN(C[C@H]3O[C@H]31)[C@@H]24)[C@@H]1[C@H](O5)[C@@H](O)[C@@]2(CC)CC(C(=O)OC)=C3Nc4c(cc(O)c(OC)c4OC)[C@@]34CCN1[C@@H]24 [Conophylline, conophylline] | 8420 | 1740 | 3830 | 1870 | 4850 | 2520 | 3700 | 2100 | 2600 | 1500 | blood (plasma) conophylline concentration, fasted vs fed groups [3]: slightly higher in the fasted groups, but no significant difference; time at which blood concentration reached its maximum ([4]; male, Crj:CD (SD) IGS, rat, in vivo, po): 1.5 h; blood glucose levels [5]: significantly suppressing increased blood glucose levels
CC[C@@]12C=CCN3CC[C@]4(C(=C(C(=O)OC)C1)Nc1cc5c(cc14)[C@H]1[C@@H](O5)[C@H](O)[C@]4(CC)CC(C(=O)OC)=C5Nc6c(cc(O)c(OC)c6OC)[C@@]56CCN1[C@H]46)[C@H]32 (stereo in doubt) [Conophyllidine, conophyllidine] | 11830 | 2420 | 5190 | 2500 | 8450 | 3270 | 4600 | 2200 | 3000 | 1500 | concentration in supernatant ([6]; 10 mg Crude extract I in 1 ml 1% SDS): 2970 ng/mL; concentration in supernatant ([6]; 10 mg Crude extract I in 1 ml Distilled water): 680 ng/mL; blood concentration ([4]; Dried pulverized leaves oral, healthy rats (animals 3, 4), 6 h): 54 ng/mL; blood concentration ([4]; Dried pulverized leaves oral, healthy rats (animals 3, 4), 12 h): 13 ng/mL; blood concentration ([4]; Dried pulverized leaves oral, healthy rats (animals 3, 4), 24 h): 2 ng/mL; time at which blood concentration reached its maximum ([4]; acetic acid extract oral, rats): 1.5 h; concentration at 6 h ([4]; male, Crj:CD (SD) IGS, rat, in vivo, po, 0.5 g/kg, Dried pulverized leaves oral, healthy rats (animals 3, 4), 6 h): 28 ng/mL; concentration at 12 h ([4]; male, Crj:CD (SD) IGS, rat, in vivo, po, 0.5 g/kg, Dried pulverized leaves oral, healthy rats (animals 3, 4), 12 h): 8 ng/mL; concentration at 24 h ([4]; male, Crj:CD (SD) IGS, rat, in vivo, po, 0.5 g/kg, Dried pulverized leaves oral, healthy rats (animals 3, 4), 24 h): 1 ng/mL; storing stability ([7]; 4° C., not shielded from light): gradually decreased (degraded); storing stability ([7]; −30, 4, 30, 50° C., shielded from light): very stable
